Where two headings read alike, the source gives them in different places.
Assays:
[1] = Trial B: pharmacokinetics following single and repeated doses in healthy young male subjects; format: in vivo, humans; settings: for AUC(0-t) / half-life / Cmax / Tmax: male, human, oral; for AUC(0-t): read-out: Mean AUC0-24h (%CV); for half-life: read-out: Mean apparent t½ (%CV) (converted); for Cmax: read-out: Mean Cmax (%CV)
Protocol: The study integrated the results of three double-blind, randomized, placebo-controlled trials. To measure the pharmacokinetics of eslicarbazepine acetate following single doses, oral single doses of eslicarbazepine acetate ranging from 20 mg to 2400 mg were administered to healthy young male subjects (6 subjects per dose). The pharmacokinetics of eslicarbazepine acetate following repeated doses were measured by administering repeated oral doses ranging from 400 mg to 2400 mg of eslicarbazepine acetate to healthy young male subjects (6 subjects per dose) over a period of 8 days. Analytical test methods and experimental procedures were similar to those described for Trial A above.

[2] = clinical; settings: both, human, plasma, po, 900 mg
[3] = for share of total systemic drug exposure (as assessed by AUC0-24): 8 days multiple administration
[4] = in vivo, 50 mg, single dose 50 mg eslicarbazepine acetate, n=6
[5] = in vivo, 100 mg, single dose 100 mg eslicarbazepine acetate, n=6
[6] = in vivo, 200 mg, single dose 200 mg eslicarbazepine acetate, n=6
[7] = in vivo, 400 mg, last dose of 8-day repeated 400 mg o.d. eslicarbazepine acetate, n=6
[8] = in vivo, 400 mg, single dose 400 mg eslicarbazepine acetate, n=6
[9] = in vivo, 600 mg, single dose 600 mg eslicarbazepine acetate, n=6
[10] = in vivo, 800 mg, last dose of 8-day repeated 800 mg o.d. eslicarbazepine acetate, n=6
[11] = in vivo, 900 mg, single dose 900 mg eslicarbazepine acetate, n=6
[12] = in vivo, 1200 mg, last dose of 8-day repeated 1200 mg o.d. eslicarbazepine acetate, n=6
[13] = in vivo, 1200 mg, single dose 1200 mg eslicarbazepine acetate, n=6
[14] = in vivo, 1800 mg, last dose of 8-day repeated 1800 mg o.d. eslicarbazepine acetate, n=6
[15] = in vivo, 2400 mg, last dose of 8-day repeated 2400 mg o.d. eslicarbazepine acetate, n=6
[16] = plasma, 20 mg, single dose 20 mg eslicarbazepine acetate, n=6
[17] = plasma, 1800 mg, single dose 1800 mg eslicarbazepine acetate, n=6
[18] = plasma, 2400 mg, single dose 2400 mg eslicarbazepine acetate, n=6
[19] = multiple oral dose of 900 mg eslicarbazepine acetate once-daily, last dose, arithmetic mean
[20] = multiple oral dose of 900 mg eslicarbazepine acetate twice-daily (as titled), last dose, arithmetic mean
[21] = multiple oral dose of 900 mg eslicarbazepine acetate twice-daily (as titled), last dose, arithmetic mean, listed as Eslicarbazepine

**Q.** For `NC(=O)N1c2ccccc2C[C@H](O)c2ccccc21` [eslicarbazepine], which mean AUC0-24h ([1]; 400 mg once-daily doses of eslicarbazepine acetate) is on record?
**A.** The mean AUC0-24h was 126 µg·h/mL.

**Q.** And the mean AUC0-24h ([1]; 2400 mg once-daily doses of eslicarbazepine acetate)?
**A.** The mean AUC0-24h was 906 µg·h/mL.

**Q.** And the “Median tmax (range)” value ([1]; last dose of 8-day repeated 400 mg o.d. eslicarbazepine acetate, n=6)?
**A.** Its value is 3 (0.5-7) h.

**Q.** And the “Median tmax (range)” value ([1]; last dose of 8-day repeated 800 mg o.d. eslicarbazepine acetate, n=6)?
**A.** Its value is 3.5 (1-7) h.

**Q.** And the “Median tmax (range)” value ([1]; last dose of 8-day repeated 1200 mg o.d. eslicarbazepine acetate, n=6)?
**A.** The value was 3 (0.5-6) h.

**Q.** And the “Median tmax (range)” value ([1]; last dose of 8-day repeated 1800 mg o.d. eslicarbazepine acetate, n=6)?
**A.** Its value is 2 (0.5-4) h.

**Q.** And the “Median tmax (range)” value ([1]; last dose of 8-day repeated 2400 mg o.d. eslicarbazepine acetate, n=6)?
**A.** Its value is 2 (1.5-8) h.

**Q.** What about the “mean Cmax” value ([1]; last dose, repeated once daily 400 mg doses of eslicarbazepine acetate) of the same compound?
**A.** Its value is 8,800 ng/ML.

**Q.** What about the “mean Cmax” value ([1]; last dose, repeated once daily 2400 mg doses of eslicarbazepine acetate) of the same compound?
**A.** The value was 56,500 ng/ML.

**Q.** And the AUC(0-t) [1, 4]?
**A.** Its AUC(0-t) is 6.7 µg·h/mL.

**Q.** What about the half-life [1, 4] of the same compound?
**A.** Its half-life is 8.1 h.

**Q.** What about the AUC(0-t) [1, 5] of the same compound?
**A.** Its AUC(0-t) is 16.4 µg·h/mL.

**Q.** What about the Cmax [1, 5] of the same compound?
**A.** The Cmax was 1500 ng/mL.

**Q.** And the half-life [1, 5]?
**A.** Its half-life is 9.3 h.

**Q.** What about the AUC(0-t) [1, 6] of the same compound?
**A.** Its AUC(0-t) is 30.5 µg·h/mL.

**Q.** What about the Cmax [1, 6] of the same compound?
**A.** Its Cmax is 2900 ng/mL.

**Q.** What about the half-life [1, 6] of the same compound?
**A.** Its half-life is 8.4 h.

**Q.** And the AUC(0-t) [1, 7]?
**A.** Its AUC(0-t) is 126 µg·h/mL.

**Q.** And the Cmax [1, 7]?
**A.** Its Cmax is 8800 ng/mL.

**Q.** And the half-life [1, 7]?
**A.** The half-life was 9.5 h.

**Q.** What about the AUC(0-t) [1, 8] of the same compound?
**A.** The AUC(0-t) was 81.5 µg·h/mL.

**Q.** And the Cmax [1, 8]?
**A.** The Cmax was 5200 ng/mL.

**Q.** And the half-life [1, 8]?
**A.** The half-life was 11.7 h.

**Q.** What about the AUC(0-t) [1, 9] of the same compound?
**A.** Its AUC(0-t) is 120 µg·h/mL.

**Q.** And the Cmax [1, 9]?
**A.** Its Cmax is 8500 ng/mL.

**Q.** And the half-life [1, 9]?
**A.** Its half-life is 12.3 h.

**Q.** And the AUC(0-t) [1, 10]?
**A.** The AUC(0-t) was 268 µg·h/mL.

**Q.** What about the Cmax [1, 10] of the same compound?
**A.** The Cmax was 18700 ng/mL.

**Q.** And the half-life [1, 10]?
**A.** The half-life was 12.3 h.

**Q.** And the AUC(0-t) [1, 11]?
**A.** The AUC(0-t) was 210 µg·h/mL.

**Q.** What about the Cmax [1, 11] of the same compound?
**A.** The Cmax was 15000 ng/mL.

**Q.** What about the half-life [1, 11] of the same compound?
**A.** Its half-life is 16.3 h.

**Q.** What about the AUC(0-t) [1, 12] of the same compound?
**A.** Its AUC(0-t) is 423 µg·h/mL.

**Q.** And the Cmax [1, 12]?
**A.** The Cmax was 25500 ng/mL.

**Q.** What about the half-life [1, 12] of the same compound?
**A.** The half-life was 13.1 h.

**Q.** And the AUC(0-t) [1, 13]?
**A.** Its AUC(0-t) is 286 µg·h/mL.

**Q.** What about the Cmax [1, 13] of the same compound?
**A.** The Cmax was 18600 ng/mL.

**Q.** What about the half-life [1, 13] of the same compound?
**A.** The half-life was 16.5 h.

**Q.** What about the AUC(0-t) [1, 14] of the same compound?
**A.** The AUC(0-t) was 740 µg·h/mL.

**Q.** And the Cmax [1, 14]?
**A.** Its Cmax is 47700 ng/mL.

**Q.** What about the half-life [1, 14] of the same compound?
**A.** The half-life was 11.3 h.

**Q.** And the AUC(0-t) [1, 15]?
**A.** The AUC(0-t) was 906 µg·h/mL.

**Q.** And the Cmax [1, 15]?
**A.** The Cmax was 56500 ng/mL.

**Q.** And the half-life [1, 15]?
**A.** The half-life was 10.4 h.

**Q.** What about the Tmax ([1]; in vivo, single dose 50 mg eslicarbazepine acetate, n=6, read-out: Median tmax (range)) of the same compound?
**A.** The Tmax was 0.8 h.

**Q.** What about the Tmax ([1]; in vivo, single dose 100 mg eslicarbazepine acetate, n=6, read-out: Median tmax (range)) of the same compound?
**A.** The Tmax was 1.5 h.

**Q.** What about the Tmax ([1]; in vivo, single dose 200 mg eslicarbazepine acetate, n=6, read-out: Median tmax (range)) of the same compound?
**A.** The Tmax was 1.5 h.

**Q.** What about the Tmax ([1]; in vivo, single dose 400 mg eslicarbazepine acetate, n=6, read-out: Median tmax (range)) of the same compound?
**A.** Its Tmax is 4 h.

**Q.** What about the Tmax ([1]; in vivo, single dose 600 mg eslicarbazepine acetate, n=6, read-out: Median tmax (range)) of the same compound?
**A.** Its Tmax is 4 h.

**Q.** What about the Tmax ([1]; in vivo, single dose 900 mg eslicarbazepine acetate, n=6, read-out: Median tmax (range)) of the same compound?
**A.** The Tmax was 2.3 h.

**Q.** What about the Tmax ([1]; in vivo, single dose 1200 mg eslicarbazepine acetate, n=6, read-out: Median tmax (range)) of the same compound?
**A.** Its Tmax is 4 h.

**Q.** And the AUC(0-t) [1, 16]?
**A.** The AUC(0-t) was 2.4 µg·h/mL.

**Q.** What about the Cmax [1, 16] of the same compound?
**A.** Its Cmax is 300 ng/mL.

**Q.** What about the half-life [1, 16] of the same compound?
**A.** The half-life was 9.1 h.

**Q.** And the Cmax ([1]; plasma, 50 mg, single dose 50 mg eslicarbazepine acetate, n=6)?
**A.** Its Cmax is 900 ng/mL.

**Q.** And the AUC(0-t) [1, 17]?
**A.** Its AUC(0-t) is 508 µg·h/mL.

**Q.** What about the Cmax [1, 17] of the same compound?
**A.** Its Cmax is 34600 ng/mL.

**Q.** And the half-life [1, 17]?
**A.** Its half-life is 11.8 h.

**Q.** What about the AUC(0-t) [1, 18] of the same compound?
**A.** Its AUC(0-t) is 0.446 µg·h/mL.

**Q.** And the Cmax [1, 18]?
**A.** The Cmax was 35900 ng/mL.

**Q.** And the half-life [1, 18]?
**A.** The half-life was 11.1 h.

**Q.** And the Tmax ([1]; plasma, last dose, repeated once daily, all dosages, read-out: median tmax)?
**A.** The Tmax was 2 to 3.5 h.

**Q.** And the Tmax ([1]; plasma, single dose 20 mg eslicarbazepine acetate, n=6, read-out: Median tmax (range))?
**A.** The Tmax was 0.8 h.

**Q.** What about the Tmax ([1]; plasma, single dose 1800 mg eslicarbazepine acetate, n=6, read-out: Median tmax (range)) of the same compound?
**A.** Its Tmax is 3.5 h.

**Q.** And the Tmax ([1]; plasma, single dose 2400 mg eslicarbazepine acetate, n=6, read-out: Median tmax (range))?
**A.** The Tmax was 3 h.

**Q.** And the AUC(0-inf) [2]?
**A.** Its AUC(0-inf) is 389 µg·h/mL.

**Q.** What about the AUC(0-t) [2] of the same compound?
**A.** The AUC(0-t) was 382 µg·h/mL.

**Q.** What about the Cmax [2] of the same compound?
**A.** The Cmax was 22200 ng/mL.

**Q.** What about the Tmax [2] of the same compound?
**A.** The Tmax was 2.45 h.

**Q.** And the half-life [2]?
**A.** The half-life was 9.12 h.

**Q.** What about the “total exposure in the once-daily group higher than in the twice-daily group” value ([3]; healthy volunteers, 900 mg daily) of the same compound?
**A.** Its value is “at least 26%”.

**Q.** What about the Tmax ([3]; multiple oral dose of 900 mg eslicarbazepine acetate once-daily, last dose) of the same compound?
**A.** Its Tmax is 2.45 h.

**Q.** And the AUC(0-t) [3, 19]?
**A.** Its AUC(0-t) is 381601 ng·h/mL.

**Q.** And the Cmax [3, 19]?
**A.** Its Cmax is 22210 ng/mL.

**Q.** And the AUC0-τ ([3]; multiple oral dose of 900 mg eslicarbazepine acetate once-daily, last dose, dosing interval 24 hours)?
**A.** The AUC0-τ was 294.019 µg·h/mL.

**Q.** And the Tmax ([3]; multiple oral dose of 900 mg eslicarbazepine acetate twice-daily (as titled), last dose)?
**A.** The Tmax was 2.09 h.

**Q.** What about the “AUC0-∞” value [3, 20] of the same compound?
**A.** Its value is 289.792 µg·h/mL.

**Q.** And the AUC(0-t) [3, 20]?
**A.** Its AUC(0-t) is 283,014 ng·h/mL.

**Q.** What about the Cmax [3, 20] of the same compound?
**A.** Its Cmax is 16,667 ng/mL.

**Q.** What about the t1/2 [3, 20] of the same compound?
**A.** Its t1/2 is 9.17 h.

**Q.** What about the AUC(0-t) [3, 21] of the same compound?
**A.** Its AUC(0-t) is 283014 ng·h/mL.

**Q.** What about the Cmax [3, 21] of the same compound?
**A.** Its Cmax is 16667 ng/mL.

**Q.** And the AUC0-τ ([3]; multiple oral dose of 900 mg eslicarbazepine acetate twice-daily (as titled), last dose, dosing interval 12 hours)?
**A.** The AUC0-τ was 142.08 µg·h/mL.

**Q.** And the “share of total systemic drug exposure (as assessed by AUC0-24)” value ([3]; once-daily subjects)?
**A.** The value was “approximately 95%”.

**Q.** And the “share of total systemic drug exposure (as assessed by AUC0-24)” value ([3]; twice-daily subjects)?
**A.** The value was ~96%.

Reference: patent publication EP2380575B1, “Eslicarbazepine acetate and use” (Bial-Portela & CA, S.A., priority 2005, dated 2006)
